US20230227427A1, “IL-17A MODULATORS” (SANOFI, priority 2010, published 2023)

Each molecule was assayed against T1, human recombinant IL-17A (Homo sapiens, UniProt Q16552) (assay: IL-17A AlphaLISA assay (block binding of IL-17A to its receptor IL-17RA)). Conditions: compounds pre-incubated with the IL-17A for 30 min (indicated by * in Table A).
T1 construct: purchased R&D Systems 7955-IL/CF
T1 sequence (Q16552 24-155): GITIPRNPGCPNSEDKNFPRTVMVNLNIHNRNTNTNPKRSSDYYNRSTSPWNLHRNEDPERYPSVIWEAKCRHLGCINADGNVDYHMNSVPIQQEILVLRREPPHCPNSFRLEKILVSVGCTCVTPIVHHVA
Summary of the method: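 PBS with 0.05% Tween-20 and 0.1% BSA. IL-17A stock 7.5 nM, IL-17RA/Fc stock 5 nM; compound–cytokine pre-incubation 24 h at RT, or 30 min where marked, then 90 min with receptor. pIC50 from 4-parameter logistic AlphaLISA signal, normalised to DMSO and 6 μM reference inhibitor.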

**Q.** How did the “AlphaLISA pIC50” value turn out when `Cc1nnn(C)c1-c1ccc(NC(=O)[C@@H](NC(=O)c2ccnn2C)[C@H]2CC[C@H](C)CC2)nc1` [Example 125, N—((S)-2-((5-(1,4-Dimethyl-1H-1,2,3-triazol-5-yl)pyridin-2-yl)amino)-1-((1r,4S)-4-methylcyclohexyl)-2-oxoethyl)-1-methyl-1H-pyrazole-5-carboxamide] was run?
**A.** 6.8*

Same assay, conditions: compounds pre-incubated with the IL-17A for 30 min (indicated by * in Table A); read-out: AlphaLISA pIC50 (converted)

**Q.** How did the IC50 turn out when `Cc1noc(C)c1-c1ccc(NC(=O)[C@@H](NC(=O)c2ccnn2C(C)C)[C@H]2CC[C@H](C)CC2)cn1` [Example 206, N—((S)-2-((6-(3,5-dimethylisoxazol-4-yl)pyridin-3-yl)amino)-1-((1r,4S)-4-methylcyclohexyl)-2-oxoethyl)-1-isopropyl-1H-pyrazole-5-carboxamide] was run?
**A.** 126 nM

**Q.** How did the IC50 turn out when `CCc1nocc1C(=O)N[C@H](C(=O)Nc1cnc(-c2c(C)cnn2C)c(F)c1)[C@H]1CC[C@H](C)CC1` [Example 180, N—((S)-2-((6-(1,4-dimethyl-1H-pyrazol-5-yl)-5-fluoropyridin-3-yl)amino)-1-((1r,4S)-4-methylcyclohexyl)-2-oxoethyl)-3-ethylisoxazole-4-carboxamide] was run?
**A.** 158 nM

**Q.** For `CCn1nccc1C(=O)N[C@H](C(=O)Nc1ccc(-c2c(C)n[nH]c2C)nc1)C1CCCCCC1` [Example 208, (S)—N-(1-cycloheptyl-2-((6-(3,5-dimethyl-1H-pyrazol-4-yl)pyridin-3-yl)amino)-2-oxoethyl)-1-ethyl-1H-pyrazole-5-carboxamide], which IC50 is on record?
**A.** 63.1 nM

**Q.** For `CCn1nccc1C(=O)N[C@H](C(=O)Nc1ncc(-c2c(C)noc2C)cc1F)C1CCCCCC1` [Example 163, (S)—N-(1-cycloheptyl-2-((5-(3,5-dimethylisoxazol-4-yl)-3-fluoropyridin-2-yl)amino)-2-oxoethyl)-1-ethyl-1H-pyrazole-5-carboxamide], which IC50 is on record?
**A.** 63.1 nM

**Q.** For `Cc1cnn(C)c1-c1ncc(NC(=O)[C@@H](NC(=O)c2ccnn2C)[C@H]2CC[C@H](C)CC2)cc1F` [Example 179, N—((S)-2-((6-(1,4-dimethyl-1H-pyrazol-5-yl)-5-fluoropyridin-3-yl)amino)-1-((1r,4S)-4-methylcyclohexyl)-2-oxoethyl)-1-methyl-1H-pyrazole-5-carboxamide], which IC50 is on record?
**A.** 501 nM

**Q.** Which IC50 does the source give for `Cc1cnn(C)c1-c1ncc(NC(=O)[C@@H](NC(=O)c2ccnn2C)[C@H]2CC[C@H](C)CC2)cn1` [Example 156, N—((S)-2-((2-(1,4-dimethyl-1H-pyrazol-5-yl)pyrimidin-5-yl)amino)-1-((1r,4S)-4-methylcyclohexyl)-2-oxoethyl)-1-methyl-1H-pyrazole-5-carboxamide] here?
**A.** 398 nM

**Q.** With `CCc1nocc1C(=O)N[C@H](C(=O)Nc1ccc(-c2c(C)n[nH]c2C)nc1)[C@H]1CC[C@H](C)CC1` [Example 213, N—((S)-2-((6-(3,5-dimethyl-1H-pyrazol-4-yl)pyridin-3-yl)amino)-1-((1r,4S)-4-methylcyclohexyl)-2-oxoethyl)-3-ethylisoxazole-4-carboxamide] as the molecule, how does the IC50 read?
**A.** 100 nM

**Q.** How did the IC50 turn out when `Cc1noc(C)c1-c1ccc(NC(=O)C(NC(=O)c2ccnn2C)C2CCCCCCC2)nc1` (centres unmarked) [Example 105, N-(1-Cyclooctyl-2-((5-(3,5-dimethylisoxazol-4-yl)pyridin-2-yl)amino)-2-oxoethyl)-1-methyl-1H-pyrazole-5-carboxamide] was run?
**A.** 158 nM

**Q.** Which IC50 does the source give for `CCn1nccc1C(=O)NC(C(=O)Nc1ccc(-c2c(C)cnn2C)cn1)[C@H]1CC[C@H](C(F)(F)F)CC1` (some centres unmarked) [Example 186, N-(2-((5-(1,4-dimethyl-1H-pyrazol-5-yl)pyridin-2-yl)amino)-2-oxo-1-((1r,4r)-4-(trifluoromethyl)cyclohexyl)ethyl)-1-ethyl-1H-pyrazole-5-carboxamide] here?
**A.** 398 nM

**Q.** For `Cc1n[nH]c(C)c1-c1ccc(NC(=O)[C@@H](NC(=O)c2ccnn2C)[C@H]2CC[C@H](C)CC2)cn1` [Example 211, N—((S)-2-((6-(3,5-dimethyl-1H-pyrazol-4-yl)pyridin-3-yl)amino)-1-((1r,4S)-4-methylcyclohexyl)-2-oxoethyl)-1-methyl-1H-pyrazole-5-carboxamide], which IC50 is on record?
**A.** 158 nM

**Q.** For `Cc1cnn(C)c1-c1ccc(NC(=O)[C@@H](NC(=O)c2ccnn2C(C)C)[C@H]2CC[C@H](C)CC2)cn1` [Example 204, N—((S)-2-((6-(1,4-dimethyl-1H-pyrazol-5-yl)pyridin-3-yl)amino)-1-((1r,4S)-4-methylcyclohexyl)-2-oxoethyl)-1-isopropyl-1H-pyrazole-5-carboxamide], which IC50 is on record?
**A.** 200 nM

**Q.** Which IC50 does the source give for `Cc1nonc1C(=O)N[C@H](C(=O)Nc1ccc(-c2c(C)noc2C)cn1)[C@H]1CC[C@H](C)CC1` [Example 120, N—((S)-2-((5-(3,5-Dimethylisoxazol-4-yl)pyridin-2-yl)amino)-1-((1r,4S)-4-methylcyclohexyl)-2-oxoethyl)-4-methyl-1,2,5-oxadiazole-3-carboxamide] here?
**A.** 251 nM

**Q.** With `Cn1nccc1C(=O)N[C@H](C(=O)Nc1ccc(-c2c(Cl)cnn2C)cn1)C1CCCCCC1` [Example 174, (S)—N-(2-((5-(4-chloro-1-methyl-1H-pyrazol-5-yl)pyridin-2-yl)amino)-1-cycloheptyl-2-oxoethyl)-1-methyl-1H-pyrazole-5-carboxamide] as the molecule, how does the IC50 read?
**A.** 158 nM

Same assay, conditions: compounds pre-incubated with the IL-17A for 24 h at room temperature; read-out: AlphaLISA pIC50 (converted)

**Q.** Which IC50 does the source give for `Cn1nccc1C(=O)N[C@H](C(=O)Nc1ccc(-c2cnc(=O)[nH]c2)c(F)c1)C(c1ccccc1)c1ccccc1` [Example 64, (S)—N-(1-((3-fluoro-4-(2-oxo-1,2-dihydropyrimidin-5-yl)phenyl)amino)-1-oxo-3,3-diphenylpropan-2-yl)-1-methyl-1H-pyrazole-5-carboxamide] here?
**A.** 398 nM

**Q.** `COc1cc(NC(=O)[C@@H](NC(=O)c2ccnn2C)C(c2ccccc2)c2ccccc2)ccc1-c1ccncc1CO` [Example 53, (S)—N-(1-((4-(3-(hydroxymethyl)pyridin-4-yl)-3-methoxyphenyl)amino)-1-oxo-3,3-diphenylpropan-2-yl)-1-methyl-1H-pyrazole-5-carboxamide] was tested. Which IC50 did it give?
**A.** 251 nM

**Q.** How did the IC50 turn out when `COc1cnccc1-c1ccc(NC(=O)C(NC(=O)c2ccnn2C)C2c3ccccc3-c3ccccc32)cc1` (centres unmarked) [Example 82, N-(1-(9H-fluoren-9-yl)-2-((4-(3-methoxypyridin-4-yl)phenyl)amino)-2-oxoethyl)-1-methyl-1H-pyrazole-5-carboxamide] was run?
**A.** 25.1 nM

**Q.** How did the IC50 turn out when `Cn1nccc1C(=O)N[C@H](C(=O)Nc1ccc(-c2ccc(=O)n(C)n2)c(F)c1)C(c1ccccc1)c1ccccc1` [Example 48, (S)—N-(1-((3-fluoro-4-(1-methyl-6-oxo-1,6-dihydropyridazin-3-yl)phenyl)amino)-1-oxo-3,3-diphenylpropan-2-yl)-1-methyl-1H-pyrazole-5-carboxamide] was run?
**A.** 158 nM

**Q.** `Cn1nccc1C(=O)N[C@H](C(=O)Nc1ccc(-c2ncnc3c2CCN3)cc1)C(c1ccccc1)c1ccccc1` [Example 40, (S)—N-(1-((4-(6,7-dihydro-5H-pyrrolo[2,3-d]pyrimidin-4-yl)phenyl)amino)-1-oxo-3,3-diphenylpropan-2-yl)-1-methyl-1H-pyrazole-5-carboxamide] was tested. Which IC50 did it give?
**A.** 63.1 nM

**Q.** With `COc1cnccc1-c1ccc(NC(=O)[C@@H](NC(=O)c2ccnn2C)C(c2ccccc2)c2ccccc2)cc1` [Example 3, (S)—N-(1-((4-(3-methoxypyridin-4-yl)phenyl)amino)-1-oxo-3,3-diphenylpropan-2-yl)-1-methyl-1H-pyrazole-5-carboxamide] as the molecule, how does the IC50 read?
**A.** 12.6 nM

**Q.** Which IC50 does the source give for `Cc1c(-c2ccc(NC(=O)[C@@H](NC(=O)c3ccnn3C)[C@H]3CC[C@H](C)CC3)cc2F)ccc(=O)n1C` [Example 83, N—((S)-2-((4-(1,2-Dimethyl-6-oxo-1,6-dihydropyridin-3-yl)-3-fluorophenyl)amino)-1-((1r,4S)-4-methylcyclohexyl)-2-oxoethyl)-1-methyl-1H-pyrazole-5-carboxamide] here?
**A.** 63.1 nM

**Q.** Which IC50 does the source give for `Cn1nccc1C(=O)N[C@H](C(=O)Nc1ccc(-c2ccnc3[nH]ccc23)cc1)C(c1ccccc1)c1ccccc1` [Example 21, (S)—N-(1-((4-(1H-pyrrolo[2,3-b]pyridin-4-yl)phenyl)amino)-1-oxo-3,3-diphenylpropan-2-yl)-1-methyl-1H-pyrazole-5-carboxamide] here?
**A.** 39.8 nM

**Q.** With `Cc1cc(=O)n(C)cc1-c1ccc(NC(=O)[C@@H](NC(=O)c2ccnn2C)C(c2ccccc2)c2ccccc2)cc1F` [Example 17, (S)—N-(1-((4-(1,4-dimethyl-6-oxo-1,6-dihydropyridin-3-yl)-3-fluorophenyl)amino)-1-oxo-3,3-diphenylpropan-2-yl)-1-methyl-1H-pyrazole-5-carboxamide] as the molecule, how does the IC50 read?
**A.** 15.8 nM

**Q.** `Cc1noc(C)c1-c1ccc(NC(=O)[C@@H](NC(=O)c2ccnn2C)C(c2ccccc2)c2ccccc2)cc1F` [Example 60, (S)—N-(1-((4-(3,5-dimethylisoxazol-4-yl)-3-fluorophenyl)amino)-1-oxo-3,3-diphenylpropan-2-yl)-1-methyl-1H-pyrazole-5-carboxamide] was tested. Which IC50 did it give?
**A.** 39.8 nM

**Q.** With `Cc1cncc(C)c1-c1ccc(NC(=O)[C@@H](NC(=O)c2ccnn2C)C(c2ccccc2)c2ccccc2)nc1` [Example 73, (S)—N-(1-((3′,5′-dimethyl-[3,4′-bipyridin]-6-yl)amino)-1-oxo-3,3-diphenylpropan-2-yl)-1-methyl-1H-pyrazole-5-carboxamide] as the molecule, how does the IC50 read?
**A.** 25.1 nM

**Q.** For `CCn1nccc1C(=O)N[C@H](C(=O)Nc1ccc(-c2c(C)cncc2C)cn1)[C@H]1CC[C@H](C)CC1` [Example 92, N—((S)-2-((3′,5′-Dimethyl-[3,4′-bipyridin]-6-yl)amino)-1-((1r,4S)-4-methylcyclohexyl)-2-oxoethyl)-1-ethyl-1H-pyrazole-5-carboxamide], which IC50 is on record?
**A.** 20 nM
